The numbers were not newly measured in US20070053968A1 (Wyeth, priority 2005, published 2007), which cites them from elsewhere.

Data set [1] concerns α1-adrenergic receptors.
Data set [2] addresses neuronal norepinephrine re-uptake (Homo sapiens, UniProt P23975).
In data set [3] the target is dopamine re-uptake (Homo sapiens, UniProt Q01959).
The conditions of data set [4]: compared with ODV free base.
For data set [5] the following is noted: compared with ODV free base. The source holds these as a separate data set.
The conditions of data set [6]: oral administration, versus venlafaxine, ODV or other salts of ODV.
For data set [7] the following is noted: versus venlafaxine.
In data set [8] the test system is muscarinic receptors.
Data set [9] deals with H1-histaminergic receptors (Homo sapiens, UniProt P35367).

Molecules are shown by their SMILES.

Chain of dopamine re-uptake (Q01959 whole entry): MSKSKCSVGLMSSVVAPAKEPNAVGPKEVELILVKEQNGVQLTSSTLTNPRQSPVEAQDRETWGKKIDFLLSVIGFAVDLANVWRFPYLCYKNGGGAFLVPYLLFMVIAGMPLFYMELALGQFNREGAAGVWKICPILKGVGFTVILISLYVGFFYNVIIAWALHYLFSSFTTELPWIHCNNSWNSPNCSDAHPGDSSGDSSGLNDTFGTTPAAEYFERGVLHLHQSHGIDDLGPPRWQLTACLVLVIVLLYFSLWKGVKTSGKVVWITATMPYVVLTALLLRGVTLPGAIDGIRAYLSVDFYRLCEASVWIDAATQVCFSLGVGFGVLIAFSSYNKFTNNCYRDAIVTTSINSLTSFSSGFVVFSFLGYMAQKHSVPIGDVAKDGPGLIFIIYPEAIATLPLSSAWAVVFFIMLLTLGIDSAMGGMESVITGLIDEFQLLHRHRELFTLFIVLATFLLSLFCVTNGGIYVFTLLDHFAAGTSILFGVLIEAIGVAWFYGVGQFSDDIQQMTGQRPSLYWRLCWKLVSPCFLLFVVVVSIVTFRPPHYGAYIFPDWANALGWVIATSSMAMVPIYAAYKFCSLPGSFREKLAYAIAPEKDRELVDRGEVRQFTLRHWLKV
Chain of neuronal norepinephrine re-uptake (P23975 whole entry): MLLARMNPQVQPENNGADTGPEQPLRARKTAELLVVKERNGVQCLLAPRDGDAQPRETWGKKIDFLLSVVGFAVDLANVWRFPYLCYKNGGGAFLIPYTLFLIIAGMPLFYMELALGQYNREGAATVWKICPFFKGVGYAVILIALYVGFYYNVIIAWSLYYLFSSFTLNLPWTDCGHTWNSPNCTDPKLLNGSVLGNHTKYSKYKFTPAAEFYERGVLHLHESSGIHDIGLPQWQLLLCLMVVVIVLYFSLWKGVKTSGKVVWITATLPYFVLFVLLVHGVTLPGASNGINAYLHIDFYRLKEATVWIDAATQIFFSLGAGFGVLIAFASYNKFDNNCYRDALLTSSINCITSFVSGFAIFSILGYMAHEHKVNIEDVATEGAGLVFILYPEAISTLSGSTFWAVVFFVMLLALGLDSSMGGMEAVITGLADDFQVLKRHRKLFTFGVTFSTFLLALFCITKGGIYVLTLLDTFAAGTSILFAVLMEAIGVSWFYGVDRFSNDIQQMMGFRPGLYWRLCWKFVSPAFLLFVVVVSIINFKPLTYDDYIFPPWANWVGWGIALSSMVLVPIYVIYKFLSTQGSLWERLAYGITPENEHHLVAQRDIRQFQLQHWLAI
Chain of H1-histaminergic receptors (P35367 whole entry): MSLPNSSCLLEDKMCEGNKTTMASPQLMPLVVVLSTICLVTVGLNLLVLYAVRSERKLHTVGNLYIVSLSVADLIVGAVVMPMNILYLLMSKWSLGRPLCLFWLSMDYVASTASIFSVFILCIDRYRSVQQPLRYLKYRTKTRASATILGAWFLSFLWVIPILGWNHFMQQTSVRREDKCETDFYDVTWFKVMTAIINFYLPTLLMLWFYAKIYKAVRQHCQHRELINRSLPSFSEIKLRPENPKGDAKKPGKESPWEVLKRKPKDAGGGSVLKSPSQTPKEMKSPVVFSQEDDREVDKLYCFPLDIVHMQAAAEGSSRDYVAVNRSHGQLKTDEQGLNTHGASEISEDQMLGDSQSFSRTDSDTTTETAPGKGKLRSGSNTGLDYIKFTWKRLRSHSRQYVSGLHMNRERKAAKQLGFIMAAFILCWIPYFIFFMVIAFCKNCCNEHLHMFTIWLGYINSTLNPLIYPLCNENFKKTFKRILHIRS

For the compound `COc1ccc(C(CN(C)C)C2(O)CCCCC2)cc1` (racemic) [venlafaxine, (±)-1-[2-(dimethylamino)-1-(4-methoxyphenyl)ethyl]-cyclohexanol], the “affinity for α1-adrenergic receptors” value in data set [1] is reported as “no significant affinity”. Further, in data set [2], the “inhibition of neuronal norepinephrine re-uptake” value was “potent inhibitors”. Also, in [3], the “inhibition of dopamine re-uptake” value is on record as “weak inhibitors”.

Turning to `CN(C)CC(c1ccc(O)cc1)C1(O)CCCCC1.O=C(O)CCC(=O)O` (centres unmarked) [ODV succinate], the bioavailability result in [4] was “improved”. Further, the permeability result in [5] was “improved”. The “incidence of nausea, vomiting, diarrhea, abdominal pain, headache, vaso-vagal malaise, and/or trismus” value in data set [6] is given as “lower incidence”.

`CN(C)CC(c1ccc(O)cc1)C1(O)CCCCC1` (centres unmarked) [ODV]: in data set [7], the “solubility compared with venlafaxine” value was “more soluble”. Also, the “affinity for α1-adrenergic receptors” value in data set [1] is given as “no significant affinity”. Further, the “inhibition of dopamine re-uptake” value in data set [3] is listed as “weak inhibitors”. Besides, in data set [8], the “affinity for muscarinic receptors” value is recorded as “no significant affinity”. The “affinity for H1-histaminergic receptors” value in [9] is “no significant affinity”.
